Reference: patent publication US7947686B2, “Substituted pyrazolo[4,3-c]pyridine derivatives active as kinase inhibitors” (Nerviano Medical Sciences S.r.l., priority 2005, dated 2011)

Columns and labels:
[1] = tested on: IGF1-induced S6 phosphorylation; test: Growth factor induced S6 ribosomal protein phosphorylation in primary human fibroblasts; type: cell-based; details: normal human dermal fibroblasts (NHDF), 10 nM IGF-1; read-out: Inhibition of IGF1-induced S6 phosphorylation IC50
Protocol: Growth Factor Induced […] Ribosomal Protein Phosphorylation in Primary Human Fibroblasts.
Phosphorylation of S6 ribosomal protein in response to growth factor stimulation of normal human dermal fibroblasts (NHDF) was used to assess compound potency in inhibiting IGF-1 induced signal transduction in cells, and selectivity towards EGF and PDGF stimulus. NHDF cells obtained from PromoCell (Heidelberg, Germany), were maintained at 37° C. in a humidified atmosphere with 5% CO2 in complete Fibroblast Growth Medium (PromoCell). For assay, NHDF were seeded in 384-well tissue culture plates (clear- and flat-bottomed black plates; Matrix Technologies Inc., Hudson, N.H., USA) at a density of 5000 cells/well in serum-free medium containing 0.1% bovine serum albumin (BSA) and incubated for 5 days. Starved cells were treated for 1 hour with desired doses of compounds and then stimulated for a further 2 hours with either 10 nM IGF-1 (Invitrogen Corp., CA, USA), 10 nM EGF (Gibco BRL, USA) or 1 nM PDGF-B/B (Roche Diagnostics GmbH, Germany). Cells were then fixed in PBS/3.7% paraformaldehyde for 20 minutes at room temperature, washed ×2 with PBS, and permeabilized with PBS/0.3% Triton X-100 for 15 minutes. Wells were then saturated with PBS/1% non-fat dry milk (Bio-Rad Laboratories, Hercules, Calif., USA) for 1 hour, and then probed for 1 hour at 37° C. with anti-phospho-S6 (Ser 235/236) antibody (Cell Signaling Technology, Beverly, Mass., USA, cat. #2211) at 1/200 dilution in PBS/1% milk/0.3% Tween 20. […] Fluorescence images in the DAPI and Cy5™ channels were automatically acquired, stored and analysed using a Cellomics ArrayScan™ IV instrument (Cellomics, Pittsburgh, USA); the Cellomics Cytotoxicity Algorithm was used to quantify cytoplasmic fluorescence associated with phospho-S6 (Cy5™ signal parameter: “Mean Lyso Mass-pH”) for each cell in 10 fields/well, and eventually expressed as a mean population value. […]

[2] = target: T1, IGF1R (Homo sapiens, UniProt P08069); test: Western blot analysis of receptor phosphorylation following stimulation with IGF-1 in MCF-7 human breast cancer cells; type: cell-based; parameters: endogenous in cells; host or cells: MCF-7 (ATCC#HTB-22); details: starved MCF-7 cells, increasing concentrations of compound, then 10 nM IGF1; pIGF1R band, FIG. 1
Protocol: [formula] where νb is the baseline velocity, ν is the observed reaction velocity, ν0 is the velocity in the absence of inhibitors, and [I] is the inhibitor concentration. Cell-Based Assays for Inhibitors of IGF-1R Kinase Activity Western Blot Analysis of Receptor Phosphorylation Following Stimulation with IGF-1 in MCF-7 Human Breast Cancer Cells
MCF-7 cells (ATCC#HTB-22) were seeded in 12-well tissue culture plates at 2×10^5 cells/well in E-MEM medium (MEM+Earle's BSS+2 mM glutamine+0.1 mM non-essential amino acids)+10% FCS, and incubated overnight at 37° C., 5% CO2, 100% relative humidity. Cells were then starved by replacing E-MEM+10% FCS with E-MEM+0.1% BSA, and incubating overnight. After this incubation, wells were treated with desired concentrations of compound for 1 hour at 37° C., and were then stimulated with 10 nM recombinant human IGF-1 (Invitrogen, Carlsbad, Calif., USA) for 10 minutes at 37° C. Cells were then washed with PBS and lysed in 100 microL/well cell lysis buffer (M-PER Mammalian Protein Extraction Reagent [Product #78501, Pierce, Rockford, Ill., USA]+10 mM EDTA+Protease inhibitor cocktail [Sigma-Aldrich product #P8340]+phosphatase inhibitor cocktail [Sigma-Aldrich products #P2850+#P5726]). Cell lysates were cleared by centrifugation at 10,000×g for 5 minutes, and 10 microg/lane of cleared lysate protein were run on NuPAGE gels (NuPAGE 4-12% 10-lane Bis-Tris gels, Invitrogen) with MOPS running buffer, then transferred onto Hybond-ECL nitrocellulose filters (Amersham Biosciences, Little Chalfont, Buckinghamshire, UK) using Mini PROTEAN II chambers (Bio-Rad Laboratories, Hercules, Calif., USA). […]
Target sequence in this assay (P08069 31-1367): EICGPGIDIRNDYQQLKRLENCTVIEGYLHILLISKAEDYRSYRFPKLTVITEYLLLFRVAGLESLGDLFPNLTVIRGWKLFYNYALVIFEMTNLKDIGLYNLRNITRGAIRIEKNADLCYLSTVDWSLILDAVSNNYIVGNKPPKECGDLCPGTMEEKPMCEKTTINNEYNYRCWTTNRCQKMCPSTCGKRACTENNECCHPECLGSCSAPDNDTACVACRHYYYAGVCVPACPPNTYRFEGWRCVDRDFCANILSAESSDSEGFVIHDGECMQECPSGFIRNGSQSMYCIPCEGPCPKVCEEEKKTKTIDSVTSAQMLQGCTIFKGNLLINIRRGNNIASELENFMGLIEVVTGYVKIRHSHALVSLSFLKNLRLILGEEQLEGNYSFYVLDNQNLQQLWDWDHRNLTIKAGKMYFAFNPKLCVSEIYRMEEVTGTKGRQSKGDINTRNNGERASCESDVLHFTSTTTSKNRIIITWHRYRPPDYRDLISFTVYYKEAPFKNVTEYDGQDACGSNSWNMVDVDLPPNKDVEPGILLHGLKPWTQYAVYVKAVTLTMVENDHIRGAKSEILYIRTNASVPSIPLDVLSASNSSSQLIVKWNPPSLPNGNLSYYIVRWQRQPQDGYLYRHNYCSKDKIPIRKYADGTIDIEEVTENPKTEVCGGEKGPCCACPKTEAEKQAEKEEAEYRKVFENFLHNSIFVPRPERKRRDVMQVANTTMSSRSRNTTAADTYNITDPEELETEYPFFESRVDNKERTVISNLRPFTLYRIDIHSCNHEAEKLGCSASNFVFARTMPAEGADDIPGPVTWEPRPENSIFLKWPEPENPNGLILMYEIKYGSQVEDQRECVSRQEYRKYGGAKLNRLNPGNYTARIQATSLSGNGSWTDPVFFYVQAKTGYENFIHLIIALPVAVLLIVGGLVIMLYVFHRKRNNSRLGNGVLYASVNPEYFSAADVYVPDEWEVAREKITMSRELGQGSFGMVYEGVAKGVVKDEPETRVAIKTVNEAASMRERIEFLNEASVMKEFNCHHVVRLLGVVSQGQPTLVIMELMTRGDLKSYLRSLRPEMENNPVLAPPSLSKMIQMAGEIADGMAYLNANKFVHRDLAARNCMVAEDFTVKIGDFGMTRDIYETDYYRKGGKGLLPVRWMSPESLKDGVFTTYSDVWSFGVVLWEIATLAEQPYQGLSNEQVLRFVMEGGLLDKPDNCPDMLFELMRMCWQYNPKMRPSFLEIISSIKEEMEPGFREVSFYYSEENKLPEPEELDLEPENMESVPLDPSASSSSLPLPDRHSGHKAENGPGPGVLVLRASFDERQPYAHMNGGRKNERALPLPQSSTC

[3] = target: T1, IGF1R; test: Biochemical assay for inhibitors of IGF-1R kinase activity (trans-phosphorylation, 33P-ATP, Dowex); parameters: amino acid residues 960-1367 of precursor protein; made in house; host or cells: H5 insect cells (baculovirus; virus produced in Sf21 cells); details: read-out: IGF1R IC50 (μM) Biochemical assay
Protocol: Human cDNA was used as template for amplification by polymerase chain reaction (PCR) of the predicted cytoplasmic portion of IGF-1R (amino acid residues 960-1367 of precursor protein; see NCBI Entrez Protein Accession #P08069) which includes the entire kinase domain. PCR was conducted using the forward primer sequence 5′-[…]-3′ (SEQ ID NO:1) and the reverse primer sequence 5′-[…]-3′ (SEQ ID NO:2). In order to facilitate subsequent cloning steps, both primers comprise a BamHI restriction endonuclease site sequence. This PCR product was cloned in frame using BamHI sticky ends into a transfer vector for the baculovirus expression system, pVL1392 (Pharmingen), previously modified by insertion into the pVL1392 multiple cloning site of sequences encoding Glutathione S-transferase (GST) fusion protein, PreScission protease cleavage site and partial MCS cassette derived from the pGex-6P plasmid (Amersham BioSciences). Insertion of the IGF-1R PCR product described above into the pGex-6P derived BamHI site of the modified pVL1392 vector results in an open reading frame corresponding to the pGEX-6P GST protein and PreScission peptide fused with the human IGF-1R cytoplasmic domain. In order to obtain fusion protein, Sf21 insect cells (Invitrogen) are cotransfected with 2 microg of purified plasmid and 1 microg of virus DNA (BaculoGold™ Transfection Kit, Pharmingen), as described in the Baculovirus Instruction manual (Pharmingen). A first amplification of the virus is performed using 600 microL of cotransfected virus on 6×10^6 Sf21 in a monolayer culture, in 12 mL of medium (TNM-FH Grace's medium—Pharmingen). After 3 days the medium is collected, centrifuged and transferred to a sterile tube. A second amplification is prepared with the same method using 2 mL on 3×10^7 cells, diluted in 40 mL of medium. For the third amplification of virus, 1 mL of supernatant from the second round are used per 3×10^7 cells diluted in 40 mL of medium. […]
The inhibitory activity of putative kinase inhibitors and the potency of selected compounds were determined using a trans-phosphorylation assay. […]
Target sequence in this assay (P08069 960-1367): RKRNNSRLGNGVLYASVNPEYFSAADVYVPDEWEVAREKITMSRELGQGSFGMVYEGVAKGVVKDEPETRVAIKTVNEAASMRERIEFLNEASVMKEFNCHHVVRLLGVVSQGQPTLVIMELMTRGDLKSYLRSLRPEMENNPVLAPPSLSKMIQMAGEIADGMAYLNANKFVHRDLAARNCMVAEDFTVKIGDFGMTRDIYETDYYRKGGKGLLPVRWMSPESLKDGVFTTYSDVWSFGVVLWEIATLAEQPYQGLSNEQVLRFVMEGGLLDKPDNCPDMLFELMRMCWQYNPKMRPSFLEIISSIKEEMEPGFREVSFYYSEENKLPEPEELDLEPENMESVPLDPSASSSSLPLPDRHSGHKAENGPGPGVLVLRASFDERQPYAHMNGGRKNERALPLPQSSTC

| SMILES | IC50 [1] [nM] | inhibition of IGF1R auto-phosphorylation [2] | IC50 [3] [µM] |
| --- | --- | --- | --- |
| CN1CCN(c2ccc(C(=O)Nc3n[nH]c4c3CN(S(=O)(=O)c3cc(F)cc(F)c3)CC4)c(NC(=O)c3ccc[nH]3)c2)CC1 [Compound 28, 1H-Pyrrole-2-carboxylic acid [2-[5-(3,5-difluoro-benzenesulfonyl)-4,5,6,7-tetrahydro-1H-pyrazolo[4,3-c]pyridin-3-ylcarbamoyl]-5-(4-methyl-piperazin-1-yl)-phenyl]-amide] | 80 | inhibition of IGF1-induced IGF1R auto-phosphorylation | 0.049 |
| CN1CCN(c2ccc(C(=O)Nc3n[nH]c4c3CN(S(=O)(=O)c3cc(F)cc(F)c3)CC4)c(NCc3ccco3)c2)CC1 [Compound 52, N-[5-(3,5-Difluoro-benzenesulfonyl)-4,5,6,7-tetrahydro-1H-pyrazolo[4,3-c]pyridin-3-yl]-2-[(furan-2-ylmethyl)-amino]-4-(4-methyl-piperazin-1-yl)-benzamide] | 640 | inhibition of IGF1-induced IGF1R auto-phosphorylation | 0.055 |
| CN1CCN(c2ccc(C(=O)Nc3n[nH]c4c3CN(S(=O)(=O)c3cc(F)cc(F)c3)CC4(C)C)c(NC(=O)C3CCOCC3)c2)CC1 [Compound 293, Tetrahydro-pyran-4-carboxylic acid [2-[5-(3,5-difluoro-benzenesulfonyl)-7,7-dimethyl-4,5,6,7-tetrahydro-1H-pyrazolo[4,3-c]pyridin-3-ylcarbamoyl]-5-(4-methyl-piperazin-1-yl)-phenyl]-amide] | 280 | inhibition of IGF1-induced IGF1R auto-phosphorylation | 0.14 |
